Measured values from patent US10703765B2 (priority 2014, dated 2020).
pKi: −log10 of the molar value. Counter-ions that a name gives are not always drawn. Like-named read-outs stand apart in the source and are kept apart here.

Target: human σ1 receptor (Homo sapiens, UniProt Q99720)
Assay: biochemical
Type: binding
Set-up: μ and σ1 dual binding: key to the marks not given beside the values
[1] = read-out: μ and σ1 dual binding

Sequence of human σ1 receptor (Q99720 whole entry): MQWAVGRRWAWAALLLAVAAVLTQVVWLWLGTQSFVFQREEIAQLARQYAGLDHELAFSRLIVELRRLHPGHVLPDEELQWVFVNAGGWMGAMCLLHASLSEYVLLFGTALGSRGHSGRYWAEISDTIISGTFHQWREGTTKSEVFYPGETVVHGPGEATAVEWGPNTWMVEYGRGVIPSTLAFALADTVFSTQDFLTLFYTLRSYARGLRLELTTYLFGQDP

Structure (SMILES): CC1OC2(CCN(CCc3ccccc3)CC2)CN(c2ccc3c(c2)OCO3)C1=O (stereo not drawn) [Example 202, 4-(benzo[d][1,3]dioxol-5-yl)-2-methyl-9-phenethyl-1-oxa-4,9-diazaspiro[5.5]undecan-3-one hydrochloride]
- pKi: > 6.30

Structure (SMILES): CC1OC2(CCN(CCc3ccccc3)CC2)CN(c2ccc3ncsc3c2)C1=O (stereo not drawn) [Example 203, 4-(benzo[d]thiazol-6-yl)-2-methyl-9-phenethyl-1-oxa-4,9-diazaspiro[5.5]undecan-3-one]
- μ and σ1 dual binding: ++

Structure (SMILES): CC1OC2(CCN(CCc3ccccc3)CC2)CN(c2nc3ccccc3s2)C1=O.Cl (stereo not drawn) [Example 204, 4-(benzo[d]thiazol-2-yl)-2-methyl-9-phenethyl-1-oxa-4,9-diazaspiro[5.5]undecan-3-one hydrochloride]
- μ and σ1 dual binding: ++

Structure (SMILES): CC1OC2(CCN(CCc3ccccc3)CC2)CN(c2ccncc2)C1=O.Cl (stereo not drawn) [Example 205, 2-methyl-9-phenethyl-4-(pyridin-4-yl)-1-oxa-4,9-diazaspiro[5.5]undecan-3-one hydrochloride]
- μ and σ1 dual binding: ++

Structure (SMILES): COc1ccccc1N1CC2(CCN(CCc3ccccc3)CC2)OC(C)C1=O (stereo not drawn) [Example 206, 4-(2-methoxyphenyl)-2-methyl-9-phenethyl-1-oxa-4,9-diazaspiro[5.5]undecan-3-one hydrochloride]
- pKi [1]: > 7.00

Structure (SMILES): CC1OC2(CCN(CCc3ccccc3)CC2)CN(c2cccc(C(F)(F)F)n2)C1=O (stereo not drawn) [Example 207, 2-methyl-9-phenethyl-4-(6-(trifluoromethyl)pyridin-2-yl)-1-oxa-4,9-diazaspiro[5.5]undecan-3-one]
- pKi [1]: > 7.00

Structure (SMILES): CC1OC2(CCN(CCc3ccccc3)CC2)CN(c2ncccc2F)C1=O (stereo not drawn) [Example 208, 4-(3-fluoropyridin-2-yl)-2-methyl-9-phenethyl-1-oxa-4,9-diazaspiro[5.5]undecan-3-one]
- pKi [1]: > 7.00

Structure (SMILES): CC1OC2(CCN(CCc3ccccc3)CC2)CN(c2nccs2)C1=O (stereo not drawn) [Example 209, 2-methyl-9-phenethyl-4-(thiazol-2-yl)-1-oxa-4,9-diazaspiro[5.5]undecan-3-one hydrochloride]
- pKi [1]: > 6.30

Structure (SMILES): CC1OC2(CCN(CCc3ccccc3)CC2)CN(c2cnn(C)c2)C1=O (stereo not drawn) [Example 210, 2-methyl-4-(1-methyl-1H-pyrazol-4-yl)-9-phenethyl-1-oxa-4,9-diazaspiro[5.5]undecan-3-one]
- μ and σ1 dual binding (combined class from Ki-σ1 (human σ1 receptor, A1) and Ki-μ (human μ-opioid receptor, A2) radioligand binding): ++

Structure (SMILES): COc1cccc(N2CC3(CCN(CCc4ccccc4)CC3)OC(C)C2=O)n1 (stereo not drawn) [Example 211, 4-(6-methoxypyridin-2-yl)-2-methyl-9-phenethyl-1-oxa-4,9-diazaspiro[5.5]undecan-3-one hydrochloride]
- pKi: > 6.30

Structure (SMILES): CC1OC2(CCN(CCc3ccccc3)CC2)CN(c2ccc(C(F)(F)F)nc2)C1=O (stereo not drawn) [Example 212, 2-methyl-9-phenethyl-4-(6-(trifluoromethyl)pyridin-3-yl)-1-oxa-4,9-diazaspiro[5.5]undecan-3-one hydrochloride]
- pKi [1]: < 6.30

Structure (SMILES): CC1OC2(CCN(CCc3ccccc3)CC2)CN(c2cccnc2F)C1=O (stereo not drawn) [Example 213, 4-(2-fluoropyridin-3-yl)-2-methyl-9-phenethyl-1-oxa-4,9-diazaspiro[5.5]undecan-3-one]
- pKi: > 7.00

Structure (SMILES): CC1OC2(CCN(CCc3ccccc3)CC2)CN(c2cnccc2C(F)(F)F)C1=O (stereo not drawn) [Example 214, 2-methyl-9-phenethyl-4-(4-(trifluoromethyl)pyridin-3-yl)-1-oxa-4,9-diazaspiro[5.5]undecan-3-one hydrochloride]
- pKi [1]: > 7.00

Structure (SMILES): CC1OC2(CCN(CCc3ccccc3)CC2)CN(c2cccnc2C(F)(F)F)C1=O (stereo not drawn) [Example 215, 2-methyl-9-phenethyl-4-(2-(trifluoromethyl)pyridin-3-yl)-1-oxa-4,9-diazaspiro[5.5]undecan-3-one hydrochloride]
- pKi [1]: > 6.30

Structure (SMILES): CC1OC2(CCN(CCc3ccccc3)CC2)CN(c2cncc(F)c2)C1=O (stereo not drawn) [Example 216, 4-(5-fluoropyridin-3-yl)-2-methyl-9-phenethyl-1-oxa-4,9-diazaspiro[5.5]undecan-3-one hydrochloride]
- pKi [1]: > 6.30
